Measurements reported in patent US5112806A, “Antibiotic, mersacidin, a process for the preparation thereof and the use thereof as a pharmaceutical” (Hoechst Aktiengesellschaft, priority 1988, dated 1992).

How the values were obtained:
S. aureus SG 511 [1] = test: In vivo activity against S. aureus SG 511 abscess in rats; details: infecting dose 2 × 10^-9 CFU in 5% mucin under the skin, 50 mg/kg × 7 days
Method: In vivo activity of mersacidin against S. aureus SG 511 abscess in rats, compared with vancomycin.
Infecting dose : […] in 5% mucin, injected under the skin.
Treatment: 50 mg/kg × 7 days

S. aureus E 710 (MRSA) = test: In vivo activity against S. aureus E 710 (MRSA) in mice; details: S. aureus E 710 (MRSA), 5 × 10^9 CFU/mouse (1 MLD)
Method: On subcutaneous administration in a dose of 9.37 and 25.00 mg/kg to laboratory mice infected experimentally with Staphylococcus aureus SG 511 and S. aureus 710 (resistant to methicillin), […]. […]

S. aureus SG 511 [2] = test: In vivo activity against S. aureus SG 511 infection in mice; details: S. aureus SG 511, 1.75 × 10^9 CFU/mouse
Method: On subcutaneous administration in a dose of 9.37 and 25.00 mg/kg to laboratory mice infected experimentally with Staphylococcus aureus SG 511 and S. aureus 710 (resistant to methicillin), […].
In vivo activity of mersacidin against S. aureus SG 511
infection in mice compared with vancomycin.
Inoculation medium used: 1.75 × 10^9 CFU/mouse

S. aureus SG 511 [3] = test: as above; details: mice, S. aureus SG 511, 1.75 × 10^9 CFU/mouse

In the case of `CN[C@H](CC(C)C)C(=O)N[C@H]1C(=O)N[C@@H](CC(N)=O)C(=O)N[C@H]2C(=O)N[C@H]3C(=O)N[C@H](C(=O)N[C@H](C(=O)O)c4cc(O)cc(O)c4-c4cc3ccc4O)[C@H](O)c3ccc(c(Cl)c3)Oc3cc2cc(c3O[C@@H]2O[C@H](CO)[C@@H](O)[C@H](O)[C@H]2O[C@H]2C[C@](C)(N)[C@H](O)[C@H](C)O2)Oc2ccc(cc2Cl)[C@H]1O` [Vancomycin, reference compound], the “reduces bacterial counts by” value (S. aureus SG 511 [1]) is reported as 0.79 log10 CFU/ml, the “Number of mice treated/cured” value (S. aureus E 710 (MRSA); 6.25 mg/kg × 3, s.c.) is reported as 0/11 and the “percentage rate of cure” value (S. aureus E 710 (MRSA); 6.25 mg/kg × 3, s.c.) is reported as 0%. The “Number of mice treated/cured” value (S. aureus E 710 (MRSA); 12.50 mg/kg × 3, s.c.) was 3/11, the “percentage rate of cure” value (S. aureus E 710 (MRSA); 12.50 mg/kg × 3, s.c.) was 27% and the “Number of mice treated/cured” value (S. aureus E 710 (MRSA); 25.00 mg/kg × 3, s.c.) was 14/21. For the same molecule, the “percentage rate of cure” value (S. aureus E 710 (MRSA); 25.00 mg/kg × 3, s.c.) was 67%, the “Number of mice treated/cured” value (S. aureus E 710 (MRSA); 37.00 mg/kg × 3, s.c.) was 6/6 and the “percentage rate of cure” value (S. aureus E 710 (MRSA); 37.00 mg/kg × 3, s.c.) was 100%. For the same molecule, the “Approx. ED50” value (S. aureus E 710 (MRSA); s.c.) was roughly 18.94 mg/kg × 3, the “Approx. ED90” value (S. aureus E 710 (MRSA); s.c.) was roughly 32.01 mg/kg × 3 and the “Number of mice treated/cured” value (S. aureus SG 511 [2]; 9.37 mg/kg × 3, s.c.) was 48/53. The “percentage rate of cure” value (S. aureus SG 511 [2]; 9.37 mg/kg × 3, s.c.) was 85%, the “Approx. ED50” value (S. aureus SG 511 [2]; s.c.) was roughly 7.20 mg/kg × 3 and the “Approx. ED90” value (S. aureus SG 511 [2]; s.c.) was roughly 9.37 mg/kg × 3. The “Number of mice treated/cured” value (S. aureus SG 511 [3]; 3.12 mg/kg × 3, s.c.) was 2/41, the “percentage rate of cure” value (S. aureus SG 511 [3]; 3.12 mg/kg × 3, s.c.) was 5% and the “Number of mice treated/cured” value (S. aureus SG 511 [3]; 6.25 mg/kg × 3, s.c.) was 13/44. For the same molecule, the “percentage rate of cure” value (S. aureus SG 511 [3]; 6.25 mg/kg × 3, s.c.) was 29%, the “Number of mice treated/cured” value (S. aureus SG 511 [3]; 12.5 mg/kg × 3, s.c.) was 59/61 and the “percentage rate of cure” value (S. aureus SG 511 [3]; 12.5 mg/kg × 3, s.c.) was 97%. The “Number of mice treated/cured” value (S. aureus SG 511 [3]; 18.75 mg/kg × 3, s.c.) was 71/71 and the “percentage rate of cure” value (S. aureus SG 511 [3]; 18.75 mg/kg × 3, s.c.) was 100%.
